Measured values taken from patent US5670538A, “Use of prodelphinidins for obtaining medicaments intended for the treatment of arthrosis” (Laboratoires Dolisos, priority 1992, dated 1997).

Experiments:
[1] = tested on: human articular chondrocytes; assay: Radioimmunoassay of type II collagen (coll. II) produced in tridimensional culture of human chondrocytes; type: cell-based; details: for activity at 1 µg/mL / activity at 10 µg/mL / activity at 100 µg/mL: Homo sapiens, Chondrocyte, 288 h, control = 100, read-out: Cumulative release of coll.II over 12 days, %; for Type II collagen in the culture media, effect in words / Collagen II in the clusters, effect in words: 10 and 100 μg/ml; for Coll. II in the clusters / Collagen II in the clusters, effect in words: experiment 397
From the text: The model used for testing the proanthocyanidols, namely the tridimensional culture of human chondrocytes allows chondrorepair to be quantified by the production of matrix substances: type II collagen, proteoglycans, and chondroresorption by the reduction in the levels of prostaglandin E2 and of OH° and O°2 type free radicals produced.
(§1) 1. Tridimensional culture of human chondrocytes
(§2) The technique used has been described in detail (Bassleer et al., 1986).
(§3) Briefly, human articular chondrocytes are cultivated in DMEM (Dulbecco's Modification of Eagle's Medium--ICN--Gand, Belgium) with either Ultroser G 1% (GIBCO, Gand, Belgium) or 10% of foetal calf serum (ICN--Gand--Belgium), and 50 μg of ascorbic acid/ml added to it. The cartilage originates from the apparently normal zone of heads of human femur suffering from arthrosis, immediately after an operation carried out to insert a total hip prosthesis; it can also originate from the head of a healthy femur, but which has undergone a traumatism and has had to be replaced. This cartilage is then digested by clostridial collagenase 1 mg/ml (Boehringer-Mannheim, Germany) in a buffer (NaCl 120 mM, CaCl2 1 mM, KCl 5 mM, KH2 PO4 1 mM, NaHCO3 25 mM, glucose 2 mM and Hepes 30 mM, pH 7.4) for 24 hours. After 6 successive washings and centrifugations, the chondrocytes, isolated from their matrix, are cultured in flasks (10^6 cells/2 ml of culture medium) placed on a gyrator (10 rpm). The cultures are kept at 37° C. in an atmosphere of air 95%-CO2 5% (Bassleer et al., 1986). Cultivated under these conditions, after 4 to 5 days the chondrocytes form a tridimensional cluster in each flask. These clusters, which at first have a flocculent appearance, then tend to condense during the culture. After two weeks, their diameter is, in general, from 1 to 2 mm.
(§4) The fresh weight of the clusters increases with the duration of the culture, above all during the few first days.
3. Radioimmunoassay of type II collagen (coll. II)
The method for the radioimmunoassay of coll. II has been described in detail (Henrotin et al., 1990). The coll. II is extracted from human articular cartilage according to the technique described by Herbage et al. (1977). The antiserum against coll. II was obtained from rabbits according to the technique of Vaitukaitis et al. (1971).
The assay is carried out by sequential saturation. In the first instance, the radioimmunoassay is carried out in a 0.3 ml volume consisting of 0.2 ml of incubation buffer (PBS-50 mM PO4, 300 mM NaCl, 5 g/l BSA (W/V), 6.7 mM sodium azide, pH 7.4) containing the reference coll. II (0.5 to 500 ng) or the sample to be assayed and 0.1 ml of anti-coll. II antiserum from guinea pigs diluted to 1/5000 (24 hours at 4° C.). In the second instance, 0.1 ml of ^125 I-coll. II tracer labelled according to the iodogenic technique (Salacynski et al., 1979 and diluted so as to obtain 20,000 cpm/0.1 ml) is added. After 24 hours at 4° C., the collagen-antibody complexes are separated from the free radioactive coll. II by the double antibody system (Franchimont et al. 1983). Sequential saturation gives a sensitivity of 3 ng/tube. The accuracy of the method is 10%. The coefficients of the intra- and inter assay variation are 10% and 20% respectively.
The assay is specific to human articular type II collagen.
No cross reaction is obtained with bovine collagen of type I, III or IV.
The culture media are stored at -20° C. in the presence of enzymatic inhibitors (Oegema et al., 1975). These media are assayed by the radio immunological method without any treatment beforehand. The chondrocyte clusters are washed and dissociated with ultrasonics according to the method described for the assay of the PGs. After centrifugation (1500 rpm, 10 minutes), the residue is extracted using 500 mM acetic acid under agitation for 24 hours at 4° C. The supernatant of the homogenate and the extract of the residue are mixed together and assayed after equilibration at pH 7.4 using 4M NaOH.
The recovery of coll. […]

[2] = tested on: human articular chondrocytes; assay: Synthesis of DNA by incorporation of 3H-thymidine in the chondrocytes, index of cell proliferation; type: cell-based; details: 1, 10 and 100 pg/ml (so in the source); relative to control values
Protocol: as §1, §2, §3, §4
5. Analysis of the synthesis of DNA by measurement of the incorporation of ^3 H-thymidine
After different culture durations, the chondrocytes are cultivated in nutritive medium with the addition of 2 uCi/ml (5 Ci/mmole) of methyl ^3 H-thymidine (^3 H-TDN) (Amersham, Brussels, Belgium) for 24 hours. […]
The radioactivity incorporated in the cluster is then measured using a beta scintillation counter.

[3] = 1% Ultroser G, culture time 0-4 days, 1 μg/ml
[4] = 1% Ultroser G, culture time 0-4 days, 10 μg/ml
[5] = 1% Ultroser G, culture time 0-4 days, 100 μg/ml
[6] = 1% Ultroser G, culture time 4-8 days, 1 μg/ml
[7] = 1% Ultroser G, culture time 4-8 days, 10 μg/ml
[8] = 1% Ultroser G, culture time 4-8 days, 100 μg/ml
[9] = 1% Ultroser G, culture time 8-12 days, 1 μg/ml
[10] = 1% Ultroser G, culture time 8-12 days, 10 μg/ml
[11] = 1% Ultroser G, culture time 8-12 days, 100 μg/ml
[12] = foetal calf serum, Table 18, 0-4 days, 10 μg/ml
[13] = foetal calf serum, Table 18, 0-4 days, 100 μg/ml
[14] = foetal calf serum, Table 18, 4-8 days, 10 μg/ml
[15] = foetal calf serum, Table 18, 4-8 days, 100 μg/ml
[16] = foetal calf serum, Table 19, 0-4 days, 10 μg/ml
[17] = foetal calf serum, Table 19, 0-4 days, 100 μg/ml
[18] = foetal calf serum, Table 19, 4-8 days, 10 μg/ml
[19] = foetal calf serum, Table 19, 4-8 days, 100 μg/ml
[20] = foetal calf serum, 4-8 days, 10 μg/ml
[21] = foetal calf serum, 4-8 days, 100 μg/ml

Row | Structure (SMILES) | Average concentrations (m ± SD) of type II collagen in the clusters of chondrocytes at the end of 12 days of culture ([1]; 1% Ultroser G, 1 μg/ml) | Cumulative release of coll.II over 12 days, Abs ([1]; 1% Ultroser G, 1 μg/ml) [ng/μg DNA/12 days] | Average concentrations (m ± SD) of type II collagen in the clusters of chondrocytes at the end of 12 days of culture ([1]; 1% Ultroser G, 10 μg/ml) | Cumulative release of coll.II over 12 days, Abs ([1]; 1% Ultroser G, 10 μg/ml) [ng/μg DNA/12 days] | Average concentrations (m ± SD) of type II collagen in the clusters of chondrocytes at the end of 12 days of culture ([1]; 1% Ultroser G, 100 μg/ml) | Cumulative release of coll.II over 12 days, Abs ([1]; 1% Ultroser G, 100 μg/ml) [ng/μg DNA/12 days] | Coll. II released in the culture medium [1, 3] [ng/μg DNA/96 h] | Coll. II released in the culture medium [1, 4] [ng/μg DNA/96 h] | Coll. II released in the culture medium [1, 5] [ng/μg DNA/96 h] | Coll. II released in the culture medium [1, 6] [ng/μg DNA/96 h] | Coll. II released in the culture medium [1, 7] [ng/μg DNA/96 h] | Coll. II released in the culture medium [1, 8] [ng/μg DNA/96 h] | Coll. II released in the culture medium [1, 9] [ng/μg DNA/96 h] | Coll. II released in the culture medium [1, 10] [ng/μg DNA/96 h] | Coll. II released in the culture medium [1, 11] [ng/μg DNA/96 h] | activity at 1 µg/mL ([1]; 1% Ultroser G, 1 μg/ml) [%] | activity at 10 µg/mL ([1]; 1% Ultroser G, 10 μg/ml) [%] | activity at 100 µg/mL ([1]; 1% Ultroser G, 100 μg/ml) [%] | Type II collagen in the culture media, effect in words ([1]; foetal calf serum) | Coll. II released in the culture medium [1, 12] [ng/μg DNA/96 H] | further results
1 | Oc1cc(O)c2c(c1)O[C@H](c1cc(O)c(O)c(O)c1)[C@@H](O)[C@@H]2c1c(O)cc(O)c2c1O[C@H](c1cc(O)c(O)c(O)c1)[C@H](O)C2 [Substance Ia, GC-(4 alpha→8) EGC] | 105 ± 13 ng per μg of DNA | 482 | 165 ± 21 ng per μg of DNA | 787 | 175 ± 19 ng per μg of DNA | 962 | 233 ± 25 | 301 ± 52 | 462 ± 51 | 147 ± 19 | 259 ± 22 | 311 ± 41 | 102.2 ± 10.96 | 147 ± 21 | 109 ± 23 | 102 | 166 | 202 | increases | 44.3 ± 2.30 | Coll. II released in the culture medium [1, 13]: 77.0 ± 15.58 ng/μg DNA/96 H; Coll. II released in the culture medium [1, 14]: 34.0 ± 3.11 ng/μg DNA/96 H; Coll. II released in the culture medium [1, 15]: 47.2 ± 5.19 ng/μg DNA/96 H; Coll. II released in the culture medium [1, 16]: 37.4 ± 1.98 ng/μg DNA/96 H; Coll. II released in the culture medium [1, 17]: 44.2 ± 11.6 ng/μg DNA/96 H; Coll. II released in the culture medium [1, 18]: 25.3 ± 2.20 ng/μg DNA/96 H; Coll. II released in the culture medium [1, 19]: 38.2 ± 5.71 ng/μg DNA/96 H; Coll. II in the clusters [1, 20]: 78.8 ± 10.5 ng/μg DNA; Coll. II in the clusters [1, 21]: 114.7 ± 10.55 ng/μg DNA; Collagen II in the clusters, effect in words ([1]; foetal calf serum): An increase in collagen II is observed; Incorporation of 3H thymidine in the chondrocytes [2]: None of the substances Ia, lb and Ic modifies the incorporation
2 | Oc1cc(O)c2c(c1)O[C@H](c1cc(O)c(O)c(O)c1)[C@@H](O)[C@@H]2c1c(O)cc(O)c2c1O[C@H](c1cc(O)c(O)c(O)c1)[C@@H](O)C2 [Substance Ib, GC-(4 alpha→8) GC] | 98 ± 9 ng per μg of DNA | 394 | 121 ± 10 ng per μg of DNA | 572 | 158 ± 16 ng per μg of DNA | 728 | 222 ± 26 | 322 ± 33 | 392 ± 46 | 112 ± 19 | 158 ± 14 | 190 ± 22 | 59.9 ± 0.6 | 91.7 ± 6.1 | 137.7 ± 13.4 | 107 | 155 | 197 | increases | 41.4 ± 0.51 | Coll. II released in the culture medium [1, 13]: 81.1 ± 20.2 ng/μg DNA/96 H; Coll. II released in the culture medium [1, 14]: 33.3 ± 4.61 ng/μg DNA/96 H; Coll. II released in the culture medium [1, 15]: 55.0 ± 17.21 ng/μg DNA/96 H; Coll. II released in the culture medium [1, 16]: 38.2 ± 2.60 ng/μg DNA/96 H; Coll. II released in the culture medium [1, 17]: 56.3 ± 12.41 ng/μg DNA/96 H; Coll. II released in the culture medium [1, 18]: 29.6 ± 3.44 ng/μg DNA/96 H; Coll. II released in the culture medium [1, 19]: 46.3 ± 2.61 ng/μg DNA/96 H; Coll. II in the clusters [1, 20]: 81.6 ± 16.00 ng/μg DNA; Coll. II in the clusters [1, 21]: 113.2 ± 18.25 ng/μg DNA; Collagen II in the clusters, effect in words ([1]; foetal calf serum): An increase in collagen II is observed; Incorporation of 3H thymidine in the chondrocytes [2]: None of the substances Ia, lb and Ic modifies the incorporation
